Values joined by “and” are separate entries in the source; they are usually repeats but may differ in a detail not shown here. Identical values can stand only once. Active and inactive are the calls of the source.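 How the source made its calls: active means compounds graded as giving a low, moderate or strong rise in tritium labelling of cell protein versus solvent control; inactive means the rest.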

The experiment relates to HeLa cells, 3H-mannose incorporation into glycoproteins. Nature of the experiment: increase in 3H-mannose incorporation into HeLa proteins, late-stage follow-up, orthogonal assay for PMI inhibitor project, HeLa cells (AID 1553).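 Further: 1 fold = DMSO treated HeLa control cells; higher fold signals phosphomannose isomerase inhibition routing mannose into glycosylation.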
Setting [1] is: fold increase, at 25 µM, stronger effect = higher value.

On to `Cc1ccc(-n2sc3ccccc3c2=O)cc1`, for which the fold increase 3H incorporation was 1 (inactive) and 0.6 (inactive) (at 100 µM); 1.1 and 1.2 under setting [1].

For `S=c1nc(-c2cccc(Br)c2)[nH][nH]1`, the fold increase 3H incorporation (at 100 µM) is 0.9 (inactive).

Regarding `Cc1cccc(N=c2ssnc2Cl)c1`, the fold increase 3H incorporation is 0.7 (at 100 µM) and 1.6 under setting [1].

As to `O=c1c2ccccc2sn1-c1ccc(F)cc1`, the fold increase 3H incorporation was 2.5 (at 100 µM) and 2.5 under setting [1].

Take `Clc1nss/c1=N\c1nccs1`: the fold increase 3H incorporation reads like this: (at 100 µM) 1 (inactive); under setting [1], 1.1.

`N#CC1=C2SCN(Cc3ccccc3)CN2C(=O)CC1c1ccc2c(c1)OCO2` (configuration not stated): the fold increase 3H incorporation (at 100 µM) is 1 (inactive).

With `Clc1ccc(N=c2ssnc2Cl)cc1Cl`, the fold increase 3H incorporation runs as follows: (at 100 µM) 0.1 (inactive); under setting [1], 0.1.

On to `CCOc1ccc(-c2nc(=S)[nH][nH]2)cc1`, for which the fold increase 3H incorporation (at 100 µM) is 0.7 (inactive).

`Clc1cccc(N=c2ssnc2Cl)c1`: the fold increase 3H incorporation is, setting by setting: (at 100 µM) 0.4; under setting [1], 1.7.

As to `COc1cc(N=c2ssnc2Cl)cc(OC)c1`, the fold increase 3H incorporation is 1.9 (at 100 µM) and 1.1 under setting [1].

As for `O=c1c2ccccc2sn1-c1ccccc1`, the fold increase 3H incorporation is, setting by setting: (at 100 µM) 1; under setting [1], 1.1.

Consider `CN(C)S(=O)(=O)c1cccc(-n2sc3ccccc3c2=O)c1`, for which the fold increase 3H incorporation was 1.1 (at 100 µM) and 1.1 under setting [1].

Turning to `COc1cccc(-n2sc3ccccc3c2=O)c1`, the fold increase 3H incorporation (at 100 µM) is 1.4 and the fold increase 3H incorporation under setting [1] came to 0.8.

Turning to `S=c1nc(-c2cccc(Cl)c2)[nH][nH]1`, for the setting “at 100 µM”, the fold increase 3H incorporation is 1 (inactive).

Turning to `COc1cc(N=c2ssnc2Cl)c(OC)cc1Cl`, the fold increase 3H incorporation was 1.9 (at 100 µM) and 1.2 under setting [1].

In the case of `O=c1c2ccccc2sn1-c1ccc(Cl)cc1`, the fold increase 3H incorporation (at 100 µM) is 0.6 and the fold increase 3H incorporation under setting [1] worked out at 3.4.

Take `O=[N+]([O-])c1ccc(N=c2ssnc2Cl)c([N+](=O)[O-])c1`: the fold increase 3H incorporation (at 100 µM) was 1.5.

`Cc1ccc(C)n1-c1nc(=S)[nH][nH]1`: where the note is “at 100 µM”, the fold increase 3H incorporation was 1 (inactive).

As to `CCc1cc(CC)c(N=c2ssnc2Cl)c(CC)c1`, the fold increase 3H incorporation runs as follows: (at 100 µM) 0.2; under setting [1], 0.3.

As to `O=C(O)c1cccc(-n2sc3ccccc3c2=O)c1`, the fold increase 3H incorporation (at 100 µM) was 0.5 (inactive) and the fold increase 3H incorporation under setting [1] was found to be 0.5.

Regarding `O=c1c2ccc(F)cc2sn1-c1cc(Cl)ccc1Cl`, the fold increase 3H incorporation (at 100 µM) was 0.8 (inactive) and the fold increase 3H incorporation under setting [1] is 1.

With `OCc1ccccc1N=c1ssnc1Cl`, the fold increase 3H incorporation (at 100 µM) was 0.9 (inactive) and the fold increase 3H incorporation under setting [1] amounted to 0.9.

For the compound `COc1ccc(-c2nc(=S)[nH][nH]2)cc1`, the fold increase 3H incorporation runs as follows: (at 100 µM) 0.8 (inactive); under setting [1], 1.

As to `S=c1nc(C2COc3ccccc3O2)[nH][nH]1` (configuration not stated), the fold increase 3H incorporation (at 100 µM) is 0.8 (inactive).

Take `Cc1ccc(C)c(-n2[nH]c3ccccc3c2=O)c1`: the fold increase 3H incorporation (at 100 µM) is 0.8 (inactive) and the fold increase 3H incorporation under setting [1] was found to be 0.9.

For `Cc1ccc(-n2sc3ccccc3c2=O)cc1S(=O)(=O)N1CCCCC1`, the fold increase 3H incorporation was 1.4 (at 100 µM) and 1.2 under setting [1].

With `O=c1c2ccccc2sn1-c1cccc(Cl)c1`, the fold increase 3H incorporation was 0.6 (at 100 µM) and 3.4 under setting [1].

Take `Cc1ccnc(-n2sc3ccccc3c2=O)n1`: the fold increase 3H incorporation is, setting by setting: (at 100 µM) 1 (inactive); under setting [1], 0.9.

With `O=C1c2ccccc2SC1c1ccccc1` (configuration not stated), the fold increase 3H incorporation is 1.7 (at 100 µM) and 2.1 under setting [1].

As to `Cc1ccc(C=Nn2c(-c3ccncc3)n[nH]c2=S)cc1`, the fold increase 3H incorporation (at 100 µM) is 1 (inactive).

The record behind these values is PubChem BioAssay AID1553 (Sanford-Burnham Center for Chemical Genomics, 2009).
